pIC50: −log10 of the molar value. Starred links: 1 amine or outer side, 2 acyl side, 3 side chain; linkers in the order of their positions; H or OH if unused. Positions of bridges follow the written chain, without caps; N, C: chain ends. Non-standard residues stand in square brackets, D forms with d. Residues, ends and D or L forms follow the SMILES beside them. Chains are numbered I, II in the order given. Actinocin(9to1) = Cc1c2oc3c(C)ccc(C(=O)[*:1])c3nc-2c(C(=O)[*:2])c(N)c1=O; NMeV = CN[C@H](C(=O)O)C(C)C; Sar = CNCC(=O)O

The subject of one assay is EW-8. Put plainly: MTT cell viability assay. It is filed as cell-based. Conditions: EW8, 44 hours. Here is the method: (§1) Cells were seeded at a density of 1.5×10^5/ml with 100 µl/well in 96 well plates and treated with actinomycin D at 158 nM, 50 nM, 15.8 nM, 5 nM, 1.58 nM, 0.5 nM and 0 (6 wells/treatment) for 44 hours. CellTiter 96 was used to assess cell viability after a 2 hr incubation at 37°C. IC50 values were calculated using Prism.
(§2) To determine if cells driven by EWS-FLI1 are more sensitive to actinomycin D, we assessed cell growth and viability using a MTT assay after 44 hrs exposure to actinomycin D. Although all cell lines were affected by actinomycin D, the Ewing sarcoma cell lines were as a group more sensitive by comparison to other cell lines tested (Figure 5).

A further assay deals with Hela. As to the kind of experiment: MTT cell viability assay. It is filed as cell-based. Conditions: Homo sapiens, 44 hours. The method, then:
as §1, §2
(Tetrazolium assays rely on reduction of a dye to a coloured formazan, in cell work by metabolically active cells.)

Another assay has as its system Ovcar-3. As to the kind of experiment: MTT cell viability assay. It is filed as cell-based. Conditions: Homo sapiens, 44 hours. Here is the method:
as §1, §2

The subject of another assay is Skov-3. Put plainly: MTT cell viability assay. The class given is cell-based. The following applies: Homo sapiens, SK-OV-3, 44 hours. The method, then: as §1, §2
Another assay concerns A673. As to the kind of experiment: MTT cell viability assay. The class given is cell-based. Conditions: Homo sapiens, 44 hours. The method, then: as §1, §2
Another assay concerns Cado-es. As to the kind of experiment: MTT cell viability assay. The class given is cell-based. The following applies: 44 hours. The method, then: as §1, §2
Another assay deals with PC-3. Put plainly: MTT cell viability assay. It is filed as cell-based. The following applies: Homo sapiens, 44 hours. Here is the method: as §1, §2
Another assay relates to TC-32. Put plainly: MTT cell viability assay. Conditions: Homo sapiens, 44 hours. The class given is cell-based. Here is the method:
as §1, §2

Another assay relates to TC-71. Put plainly: MTT cell viability assay. The class given is cell-based. The following applies: 44 hours. Here is the method:
as §1, §2

The target in the next assay is T1, p53 (Homo sapiens, UniProt P04637).
T1 construct: made in house; host or cells: bacteria (pGex-6P-1-p53); plasmid was a gift from Dr. Guangchao Sui
Put plainly: AlphaScreen proximity assay (counterscreen), binding of recombinant p53 to cognate DNA oligo. The text has this: An AlphaScreen assay for binding of recombinant EWS-FLI1 to DNA was previously described. Briefly, recombinant EWS-FLI1 and p53 were synthesized in bacteria transformed with pGex-6P-1-EWS-FLI1 or pGex-6P-1-p53, and bound to AlphaScreen acceptor beads. A biotinylated oligonucleotide containing two copies of the EWS-FLI1 binding motif or p53 binding motifs was bound to AlphaScreen donor beads. For EWS-FLI1, the oligo sequence was: […]. The p53 binding oligo sequence was: […]. This assay was used to screen 5,200 compounds, as previously described. IC50 values were calculated with the GraphPad Prism software package.
We developed a homogeneous AlphaScreen assay to assess the binding of recombinant EWS-FLI1 to DNA [18]. A parallel assay assessing binding of p53 to DNA was used as a counterscreen. Briefly, in these proximity assays, recombinant GST-EWS-FLI1 or GST-p53 was bound to glutathione-conjugated AlphaScreen acceptor beads, and a synthetic biotinylated oligonucleotide (oligo) containing tandem EWS-FLI1 or p53 binding sites was bound to streptavidin-conjugated AlphaScreen donor beads. Binding of GST-EWS-FLI1 or GST-p53 to the cognate oligo allows singlet oxygen transfer from donor to acceptor beads when excited at 680 nm, with resulting light emission between 520–620 nm.
A general note: In Alpha technology, singlet oxygen from a donor bead excites a nearby acceptor bead.

Assay [1] relates to RPS26 and TP53 transcripts. As to the kind of experiment: Quantitative RT-PCR of control transcripts in A673 cells. Conditions: actinomycin D treatment (Figure 2F). The class given is cell-based. Here is the method:
Duplicate wells of A673 cells were treated overnight with different concentration of actinomycin D. RNA was extracted with absolutely mRNA purification kit from Stratagene. 0.5 µg total RNA was mixed with 1 µl iScript Reverse Transcriptase, 10 µl of 2× RT-PCR reaction mix for probes from Bio-Rad, 1 µl of NR0B1, RPS26 and TP53 probes from Life Technologies and H2O up to 20 µl total volume. RT-PCR was performed in an iCycler iQ with 50°C for 10 minutes for one cycle; 95°C, 15 seconds, 60°C 40 seconds for 40 cycles. Each RNA sample was technically duplicated, and relative abundance was calculated by the delta Ct method.

Another assay deals with UbC promoter. Put plainly: UbC-Renilla luciferase reporter (internal control) in A673 cells. It is filed as cell-based. Conditions: Homo sapiens, 16 hours, read-out: IC50 for inhibition of UbC promoter activity. Here is the method: Ewing sarcoma A673 cells at 50% confluence in 100 mm dishes were transfected with both 5.8 µg of pGL.3b-NR0B1 and 0.2 µg of pGL.3b-Ubc-RL reporter plasmids as above. Eight hours post-transfection, cells were trypsinized and 600 ul (2×10^5) of cells were added to each well of 24 well plates. 5 µl of different concentration of compounds or DMSO control were added to each well. Each treatment was performed in triplicate. Cells were incubated for 16 hours, then cells were lysed in 100 µl of lysis buffer and 10 µl of cell lysate was used for the dual luciferase assay. Renilla luciferase activity was used as an internal control for normalization of nonspecific transcriptional inhibition or cytotoxic effects. Experiments were repeated three times. IC50 values were calculated using Prism (Graphpad).
To determine the effect of compounds on EWS-FLI1 activity in cells, we used a reporter assay comprised of the NR0B1 promoter, a prototypical EWS-FLI1-regulated gene, driving expression of firefly luciferase. Renilla luciferase driven by the Ubiquitin C promoter (UbC-RL) was used as an internal control. Confirming prior studies, the NR0B1 promoter was verified to be highly responsive to EWS-FLI1, whereas the UbC promoter activity was not subject to regulation by EWS-FLI1 (Figure S1).
A general note: Reporter assays use an easily measured gene product as a stand-in for the process of interest.

The next assay concerns RPS26 and TP53 loci. As to the kind of experiment: ChIP-qPCR, control loci in A673 cells. The following applies: 5 nM, 4 hrs, anti-FLI1 ChIP. The class given is cell-based. The method, then:
ChIP-qPCR was performed as previously described. Briefly, cells were treated with compounds for 4 hrs, then crosslinked, lysed, and chromatin fragmented. After ChIP, quantitative PCR was used to quantify NR0B1, p53, and RPS26 loci, and fold enrichment was determined by the formula: Fold enrichment = 2χ(Input Ct-ChIP Ct)/2χ(Input Ct-IgG Ct).
We used chromatin immunoprecipitation coupled with quantitative PCR (ChIP-qPCR) to assess effects of actinomycin D on EWS-FLI1 binding to chromatin in cells. A673 cells were treated with either actinomycin D at 5 nM, or vehicle. After crosslinking, chromatin was sheared and EWS-FLI1-DNA complexes were immunoprecipitated using an anti-FLI1 antibody. We used primers flanking the EWS-FLI1-binding site in the promoter of the NR0B1 gene to quantify binding of EWS-FLI1. We used RPS26 and TP53 as control loci since neither are bound by EWS-FLI [15] and we have shown that RPS26 and TP53 transcript levels were unaffected by actinomycin D treatment (Figure 2F). Without actinomycin D treatment, binding of EWS-FLI1 to the NR0B1 promoter was enriched 31-fold by comparison to IgG controls (Figure 4A, DMSO). Treatment of cells with actinomycin D reduced binding of EWS-FLI1 to the NR0B1 promoter to 4-fold (p = 0.0018; Figure 4A).

T1 sequence (P04637 whole entry, species assumed): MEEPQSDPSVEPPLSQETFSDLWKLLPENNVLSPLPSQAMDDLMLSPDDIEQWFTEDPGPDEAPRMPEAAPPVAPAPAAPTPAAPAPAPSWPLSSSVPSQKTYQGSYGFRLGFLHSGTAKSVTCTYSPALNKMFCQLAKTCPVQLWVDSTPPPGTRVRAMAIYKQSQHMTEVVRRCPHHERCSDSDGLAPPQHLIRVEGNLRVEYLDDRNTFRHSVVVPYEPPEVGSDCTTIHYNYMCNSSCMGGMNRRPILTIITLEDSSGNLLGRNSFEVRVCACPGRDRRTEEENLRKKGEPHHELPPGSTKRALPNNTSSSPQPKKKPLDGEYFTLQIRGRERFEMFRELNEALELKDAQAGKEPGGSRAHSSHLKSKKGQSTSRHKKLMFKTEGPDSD

As for `Cc1c2oc3c(C)ccc(C(=O)N[C@@H]4C(=O)N[C@H](C(C)C)C(=O)N5CCC[C@H]5C(=O)N(C)CC(=O)N(C)[C@@H](C(C)C)C(=O)O[C@@H]4C)c3nc-2c(C(=O)N[C@@H]2C(=O)N[C@H](C(C)C)C(=O)N3CCC[C@H]3C(=O)N(C)CC(=O)N(C)[C@@H](C(C)C)C(=O)O[C@@H]2C)c(N)c1=O` [Actinomycin D] (I: T[dV]P[Sar][NMeV] / II: T[dV]P[Sar][NMeV]; ester I:1-I:C, II:1-II:C; linker I:N-II:N via Actinocin(9to1)), the pIC50 in the assay on EW-8 was 8.46; in the assay on Hela, less than 7.70; with Ovcar-3, less than 7.70; in the assay with Skov-3 it was less than 7.70; in the assay with A673, 8.60; in the assay on Cado-es it was 8.15. Further, the pIC50 is less than 7.70 with PC-3; 9.00 in the assay on TC-32; 8.52 in the assay with TC-71; less than 5.00 on p53; 7.85 in the assay with UbC promoter. In assay [1], the “RPS26 and TP53 transcript levels” value is “unaffected”. In the assay with RPS26 and TP53 loci, the “Effect on RPS26 or TP53 loci in ChIP” value is “did not affect”.

The term pIC50 denotes the negative decadic logarithm of the IC50, by convention in mol/L.

Source of the values: publication PMC3718762, “Differential Disruption of EWS-FLI1 Binding by DNA-Binding Agents” (PLoS ONE, 2013).
